Values joined by “and” are separate entries in the source; they are usually repeats but may differ in a detail not shown here. Equal values may be shown once.
Assays:
[1] = system: Mouse Neuro2A neuroblastoma cells; assay: Neuro2A cells with neurites after GGTI-298 (Example 16); assay type: cell-based; conditions: 10 μM
Experimental: Mouse Neuro2A neuroblastoma cells were cultured in DMEM supplemented with 10% FBS for 24 hrs. […] Then differentiation was induced by retinoic acid in DMEM supplemented with 2% FBS. The cell culture was incubated with a Geranylgeranyl Transferase inhibitor, GGTI-298. After 24 hrs incubation, cells with neurites were counted.

[2] = system: HSP90; assay: HSP90 expression in neuro2A cells, western blot; assay type: cell-based, mouse; conditions: 48 hours, GGTI-298
Experimental: Differentiation was induced and cells incubated with geranylgeranyl transferase I inhibitor, GGTI-298. Cells were harvested and lysates were prepared and analyzed by western blot for HSP70 and HSP90. Western signals in the absence of the compounds were normalized as 1.00.

[3] = system: Murine neuro2A neuroblastoma cells; assay: Neurite outgrowth of neuro2A cells with GGTI-298 (Example 30); assay type: cell-based, mouse
Experimental: Differentiation was induced and cells incubated with geranylgeranyl transferase I inhibitor, GGTI-298. After 24 h digital images were taken and neurite outgrowth was quantified. The comparisons of the neuroprotective effect of these three compounds are shown below.
The estimated mean log10 counts, from five replicate wells for each treatment group were calculated by PROC GLM in SAS assuming a pooled estimate of variation.
The estimated mean log 10 counts from five replicate wells for each treatment group were calculated by PROC GLM in SAS assuming a pooled estimate of variation.
Differences in mean log(counts) between treatments for each concentration were calculated using PROC GLM in SAS. The p-value given is for the comparison of the estimated difference to zero, the expected difference value for no treatment effect. The anti-log of the differences represent the estimated ratio of counts (relative effect on inhibition) and are tabulated below along with the lower and upper 95% confidence intervals.

[4] = system: HSP70; assay: HSP70 expression in cortex and hippocampus in vivo, western blot; design: species or system rat; HSP70 Expression (average, western blot): scale not given here; conditions: for delta HSP70 expression, CNS-102 minus PBS: 12 mg/kg oral
Experimental: The time course of protein expression, as measured by western blot for HSP70, was determined in triplicate for hippocampus, and cortex tissue samples taken from each of 5 animals per group at each of four time points (24, 48, 72, and 96 h) after treatment with either PBS or 12 mg/kg CNS-102, administered orally. The average expression for each treatment group is calculated at each time point for each tissue using PROC MIXED in SAS and are tabulated, along with the difference (delta) between treatment averages and a p-value comparing the difference to zero, below.

[5] = system: HSP90; assay: HSP90 gene expression in rat brain tissue, qRT-PCR; assay type: in vivo; conditions: 12 mg/kg oral
Experimental: (§1) […] Expression of selected HSPs was detected using qRT-PCR with expression of the GAPDH gene used as the control. To represent the effect of CNS-102 on HSP expression, mean fold change is calculated as CNS-102 treated/PBS treated for each HSP at each time point.

[6] = system: HSP70; assay: HSP70 gene expression in rat brain tissue, qRT-PCR; assay type: in vivo; conditions: 12 mg/kg oral
Experimental: as §1

[7] = system: HSP60; assay: HSP60 gene expression in rat brain tissue, qRT-PCR; assay type: in vivo; conditions: 12 mg/kg oral
Experimental: as §1

[8] = system: SOD1 mice; assay: Survival in the SOD1 mouse model of ALS; assay type: in vivo
[9] = system: RhoA; assay: Active RhoA to total RhoA in Neuro2A cells (G-LISA, ELISA); assay type: cell-based, mouse; conditions: 48 hrs, active RhoA to total RhoA as percentage of DMSO treatments
Experimental: Mouse neuroblastoma Neuro2A cells were cultured in DMEM supplemented with 10% FBS for 24 hrs. […] Cell lysates were quantified and subjected either to active RhoA assay using G-LISA RhoA activation Assay Biochem Kit (Cytoskeleton Inc), or to total RhoA assay using Total RhoA ELISA Kit (Cytoskeleton Inc). The results were calculated as ratio of active RhoA to total RhoA and averaged from 3 biological repeats of one experiment with background subtraction. The data was presented as percentage of DMSO treatments.

[10] = 10 nM, CNS-101/CNS-102 experiment
[11] = 100 nM, CNS-101/CNS-102 experiment
[12] = 100 nM, CNS-102/CNS-103 experiment
[13] = 1000 nM, CNS-101/CNS-102 experiment
[14] = 1000 nM, CNS-102/CNS-103 experiment
[15] = 10000 nM, CNS-101/CNS-102 experiment

## CC(=O)CC/C=C(\C)CC/C=C(\C)CC/C=C(\C)CCC=C(C)C [CNS-102]
[1]
  Mean of cell numbers (cells with neurites): 0.738 Arbitrary units
[2]; 100 nM
  HSP90 western signal (absence of compounds = 1.00): 3.29
[2]; 1 μM
  HSP90 western signal (absence of compounds = 1.00): 1.74
[2]; 10 μM
  HSP90 western signal (absence of compounds = 1.00): 1.21
[3]; 10 nM
  Ratio % of neurite outgrowth, CNS-102 to CNS-101: 113.6%
[3]; [10]
  Protection %: 16.6%
  ratio of counts relative to no inhibition: 0.354
[3]; 10 nM, CNS-101/CNS-102 experiment, no inhibition 95.5, PBS 21.5
  Median Counts (cells with neurite outgrowth): 33.8
[3]; 100 nM
  Ratio % of neurite outgrowth, CNS-102 to CNS-101: 112.1%
  Ratio % of neurite outgrowth, CNS-102 to CNS-103: 114.3%
[3]; [11]
  Protection %: 29.6%
  ratio of counts relative to no inhibition: 0.454
[3]; 100 nM, CNS-101/CNS-102 experiment, no inhibition 95.5, PBS 21.5
  Median Counts (cells with neurite outgrowth): 43.4
[3]; [12]
  Protection %: 35.9%
  ratio of counts relative to no inhibition: 0.556
[3]; 100 nM, CNS-102/CNS-103 experiment, no inhibition 60.3, PBS 18.5
  Median Counts (cells with neurite outgrowth): 33.5
[3]; 1000 nM
  Ratio % of neurite outgrowth, CNS-102 to CNS-101: 122.7%
  Ratio % of neurite outgrowth, CNS-102 to CNS-103: 83.0%
[3]; [13]
  Protection %: 39.9%
  ratio of counts relative to no inhibition: 0.534
[3]; 1000 nM, CNS-101/CNS-102 experiment, no inhibition 95.5, PBS 21.5
  Median Counts (cells with neurite outgrowth): 51.0
[3]; [14]
  Protection %: 12.7%
  ratio of counts relative to no inhibition: 0.395
[3]; 1000 nM, CNS-102/CNS-103 experiment, no inhibition 60.3, PBS 18.5
  Median Counts (cells with neurite outgrowth): 23.8
[3]; 10000 nM
  Ratio % of neurite outgrowth, CNS-102 to CNS-101: 137.8%
[3]; [15]
  Protection %: 22.6%
  ratio of counts relative to no inhibition: 0.400
[3]; 10000 nM, CNS-101/CNS-102 experiment, no inhibition 95.5, PBS 21.5
  Median Counts (cells with neurite outgrowth): 38.2
[3]; CNS-101/CNS-102 experiment (FIG. 4A)
  maximum protection: ~40%
[3]; CNS-102/CNS-103 experiment (FIG. 4B)
  maximum protection: ~36%
[4]; Cortex, 24 hours after 12 mg/kg oral, PBS −0.256
  HSP70 Expression (average, western blot): −0.016
[4]; Cortex, 24 hours
  delta HSP70 expression, CNS-102 minus PBS: 0.24
[4]; Cortex, 48 hours after 12 mg/kg oral, PBS −0.56
  HSP70 Expression (average, western blot): −0.45
[4]; Cortex, 48 hours
  delta HSP70 expression, CNS-102 minus PBS: 0.11
[4]; Cortex, 72 hours after 12 mg/kg oral, PBS 0.01
  HSP70 Expression (average, western blot): 0.14
[4]; Cortex, 72 hours
  delta HSP70 expression, CNS-102 minus PBS: 0.13
[4]; Cortex, 96 hours after 12 mg/kg oral, PBS −0.15
  HSP70 Expression (average, western blot): 0.04
[4]; Cortex, 96 hours
  delta HSP70 expression, CNS-102 minus PBS: 0.19
[4]; Hippocampus, 24 hours after 12 mg/kg oral, PBS −0.072
  HSP70 Expression (average, western blot): −0.159
[4]; Hippocampus, 24 hours
  delta HSP70 expression, CNS-102 minus PBS: −0.088
[4]; Hippocampus, 48 hours after 12 mg/kg oral, PBS −0.18
  HSP70 Expression (average, western blot): 0.02
[4]; Hippocampus, 48 hours
  delta HSP70 expression, CNS-102 minus PBS: 0.2
[4]; Hippocampus, 72 hours after 12 mg/kg oral, PBS −0.2
  HSP70 Expression (average, western blot): −0.06
[4]; Hippocampus, 72 hours
  delta HSP70 expression, CNS-102 minus PBS: 0.14
[4]; Hippocampus, 96 hours after 12 mg/kg oral, PBS −0.49
  HSP70 Expression (average, western blot): −0.32
[4]; Hippocampus, 96 hours
  delta HSP70 expression, CNS-102 minus PBS: 0.17
[5]; 24 h
  HSP90 mean fold change (CNS-102 treated/PBS treated), mean ± SD: 1.32 ± 0.95
[5]; 48 h
  HSP90 mean fold change (CNS-102 treated/PBS treated), mean ± SD: 1.16 ± 0.55
[5]; 72 h
  HSP90 mean fold change (CNS-102 treated/PBS treated), mean ± SD: 2.59 ± 1.27
[5]; 96 h
  HSP90 mean fold change (CNS-102 treated/PBS treated), mean ± SD: 1.68 ± 0.72
[6]; 24 h
  HSP70 mean fold change (CNS-102 treated/PBS treated), mean ± SD: 1.18 ± 0.01
[6]; 48 h
  HSP70 mean fold change (CNS-102 treated/PBS treated), mean ± SD: 1.48 ± 0.02
[6]; 72 h
  HSP70 mean fold change (CNS-102 treated/PBS treated), mean ± SD: 1.81 ± 0.01
[6]; 96 h
  HSP70 mean fold change (CNS-102 treated/PBS treated), mean ± SD: 1.58 ± 0.03
[7]; 24 h
  HSP60 mean fold change (CNS-102 treated/PBS treated), mean ± SD: 1.26 ± 0.07
[7]; 48 h
  HSP60 mean fold change (CNS-102 treated/PBS treated), mean ± SD: 0.89 ± 0.08
[7]; 72 h
  HSP60 mean fold change (CNS-102 treated/PBS treated), mean ± SD: 1.72 ± 0.07
[7]; 96 h
  HSP60 mean fold change (CNS-102 treated/PBS treated), mean ± SD: 1.57 ± 0.16
[8]; CNS-102 12 mg/kg or riluzole 8 mg/kg daily oral from P38, vehicle 125.0
  Median Survival: 133.0 days
[8]; parametric regression (gamma distribution)
  % Increase in median time to death compared to vehicle group: 9% and 9.5%
[9]; CNS-102 10 nM
  % Relative RhoGTPase Activity: 103.6%
[9]; CNS-102 100 nM
  % Relative RhoGTPase Activity: 120.1%

Reference: patent US20150025077A1 (COYOTE PHARMACEUTICALS, INC., priority 2012, published 2015)
